This is an account of results in ChEMBL document CHEMBL1201862, “PubChem BioAssay data set” (2004).

Where “and” joins values, the source holds several entries; their conditions need not be identical. Equal values may be shown once. Calls of active or inactive are those of the source. Cut-off read from the data, not from the text of the source, for most assays here: actives have a measured IC50 and inactives only a lower limit.

One data set concerns the target Cytochrome P450 3A4 (Homo sapiens, UniProt P08684).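 Note: CYP3A4 tested as one member of a cytochrome P450 panel screen.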
The next data set has as its target T1, Leucine aminopeptidase (Plasmodium falciparum 3D7, UniProt Q8IL11).
T1 sequence (Q8IL11 whole entry): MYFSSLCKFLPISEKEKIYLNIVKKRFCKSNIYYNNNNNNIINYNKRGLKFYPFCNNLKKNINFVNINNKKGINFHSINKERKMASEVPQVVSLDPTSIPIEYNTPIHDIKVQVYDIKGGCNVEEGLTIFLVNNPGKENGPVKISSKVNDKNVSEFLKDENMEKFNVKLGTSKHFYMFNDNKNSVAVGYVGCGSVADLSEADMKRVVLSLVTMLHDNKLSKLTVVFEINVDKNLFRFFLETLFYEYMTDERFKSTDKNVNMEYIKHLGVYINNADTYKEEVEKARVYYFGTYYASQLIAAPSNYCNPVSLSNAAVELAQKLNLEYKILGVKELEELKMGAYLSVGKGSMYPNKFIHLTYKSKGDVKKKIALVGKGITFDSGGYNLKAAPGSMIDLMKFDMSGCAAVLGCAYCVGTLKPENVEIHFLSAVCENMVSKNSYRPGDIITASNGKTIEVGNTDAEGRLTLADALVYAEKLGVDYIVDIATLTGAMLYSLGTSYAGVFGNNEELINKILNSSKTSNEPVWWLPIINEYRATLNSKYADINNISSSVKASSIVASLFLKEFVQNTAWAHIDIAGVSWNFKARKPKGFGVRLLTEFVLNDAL
Briefly: P. falciparum M17LAP inhibitors, primary screen, biochemical, fluorogenic H-Leu-NHMec substrate, 1536-well (AID 1619). The data set is classed as functional.

Data set [1] deals with T2, Tyrosine-protein phosphatase non-receptor type 7 (Homo sapiens, UniProt P35236).
T2 sequence (P35236 whole entry): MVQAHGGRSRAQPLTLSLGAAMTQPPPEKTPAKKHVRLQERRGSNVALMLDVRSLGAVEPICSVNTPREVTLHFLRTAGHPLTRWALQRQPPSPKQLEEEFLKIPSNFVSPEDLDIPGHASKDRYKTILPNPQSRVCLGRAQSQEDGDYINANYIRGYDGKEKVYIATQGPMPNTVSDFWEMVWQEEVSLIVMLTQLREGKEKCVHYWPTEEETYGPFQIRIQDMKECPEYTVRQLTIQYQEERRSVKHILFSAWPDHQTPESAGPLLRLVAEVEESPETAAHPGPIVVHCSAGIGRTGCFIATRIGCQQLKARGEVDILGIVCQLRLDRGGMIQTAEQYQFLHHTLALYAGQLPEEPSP
The data set is classed as functional.

Data set [2] deals with T3, Tyrosine-protein phosphatase non-receptor type 22 (Homo sapiens, UniProt Q9Y2R2).
T3 sequence (Q9Y2R2 whole entry): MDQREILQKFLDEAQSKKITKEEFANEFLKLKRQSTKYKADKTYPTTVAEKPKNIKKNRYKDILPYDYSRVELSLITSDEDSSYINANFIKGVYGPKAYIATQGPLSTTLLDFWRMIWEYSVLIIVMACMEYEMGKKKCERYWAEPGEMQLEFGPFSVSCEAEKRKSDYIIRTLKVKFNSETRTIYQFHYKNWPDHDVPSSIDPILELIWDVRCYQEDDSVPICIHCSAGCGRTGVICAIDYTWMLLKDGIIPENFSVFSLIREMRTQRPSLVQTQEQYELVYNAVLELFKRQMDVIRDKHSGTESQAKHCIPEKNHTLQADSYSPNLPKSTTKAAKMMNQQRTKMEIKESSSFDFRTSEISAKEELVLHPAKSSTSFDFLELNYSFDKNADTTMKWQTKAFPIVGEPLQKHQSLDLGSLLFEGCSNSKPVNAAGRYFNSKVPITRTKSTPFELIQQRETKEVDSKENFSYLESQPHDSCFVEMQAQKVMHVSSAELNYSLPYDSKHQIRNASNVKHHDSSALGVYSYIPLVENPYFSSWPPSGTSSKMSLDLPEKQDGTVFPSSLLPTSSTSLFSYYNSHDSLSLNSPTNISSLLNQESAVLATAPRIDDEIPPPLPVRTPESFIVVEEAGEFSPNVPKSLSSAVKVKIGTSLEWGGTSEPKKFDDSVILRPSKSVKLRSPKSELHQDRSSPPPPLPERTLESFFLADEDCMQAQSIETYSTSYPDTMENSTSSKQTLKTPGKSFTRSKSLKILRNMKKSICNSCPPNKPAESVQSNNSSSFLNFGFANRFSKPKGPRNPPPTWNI
The data set is classed as functional.

For data set [3], the target named is T3, Tyrosine-protein phosphatase non-receptor type 22. The data set is classed as functional. The source holds these as a separate data set.
Another data set deals with T4, Phosphomannomutase 2 (Homo sapiens, UniProt O15305).
T4 sequence (O15305 whole entry): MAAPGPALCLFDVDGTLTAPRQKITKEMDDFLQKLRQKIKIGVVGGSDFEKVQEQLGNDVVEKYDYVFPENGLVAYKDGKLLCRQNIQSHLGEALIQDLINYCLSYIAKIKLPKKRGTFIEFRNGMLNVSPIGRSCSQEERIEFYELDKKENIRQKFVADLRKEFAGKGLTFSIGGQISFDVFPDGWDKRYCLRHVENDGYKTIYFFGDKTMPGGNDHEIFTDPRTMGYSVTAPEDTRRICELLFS
Briefly: Counter screen SAR assay for PMM2 inhibitors via a fluorescence intensity assay. [Related pubchem assays (depositor defined):AID1545, AID1574]. (The purpose of a counterscreen is to sort out artefacts and off-target activity.)

The target in data set [4] is T5, Mannose-6-phosphate isomerase (Homo sapiens, UniProt P34949).
T5 sequence (P34949 whole entry): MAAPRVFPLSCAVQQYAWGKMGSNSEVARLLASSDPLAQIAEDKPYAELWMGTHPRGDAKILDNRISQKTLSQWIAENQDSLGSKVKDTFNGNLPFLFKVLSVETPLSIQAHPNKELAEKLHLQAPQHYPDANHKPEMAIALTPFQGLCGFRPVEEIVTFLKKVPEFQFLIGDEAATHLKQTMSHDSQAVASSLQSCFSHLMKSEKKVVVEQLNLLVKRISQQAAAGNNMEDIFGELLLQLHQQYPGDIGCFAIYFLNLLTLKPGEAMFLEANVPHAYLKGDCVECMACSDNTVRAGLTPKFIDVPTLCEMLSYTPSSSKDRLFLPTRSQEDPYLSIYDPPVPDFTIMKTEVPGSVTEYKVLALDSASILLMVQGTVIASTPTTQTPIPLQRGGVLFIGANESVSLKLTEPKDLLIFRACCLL
Briefly: phosphomannose isomerase inhibition – biochemical, fluorescence intensity, confirmation (AID 1535).

A further data set has as its target Tumor necrosis factor (Homo sapiens, UniProt P01375). Briefly: analog potency on TNFa NF-kB signaling – cell-based, revised, SAR follow-up (AID 2337). The class given is functional.
The target in data set [5] is T6, Nucleotide-binding oligomerization domain-containing protein 1 (Homo sapiens, UniProt Q9Y239).
T6 sequence (Q9Y239 whole entry): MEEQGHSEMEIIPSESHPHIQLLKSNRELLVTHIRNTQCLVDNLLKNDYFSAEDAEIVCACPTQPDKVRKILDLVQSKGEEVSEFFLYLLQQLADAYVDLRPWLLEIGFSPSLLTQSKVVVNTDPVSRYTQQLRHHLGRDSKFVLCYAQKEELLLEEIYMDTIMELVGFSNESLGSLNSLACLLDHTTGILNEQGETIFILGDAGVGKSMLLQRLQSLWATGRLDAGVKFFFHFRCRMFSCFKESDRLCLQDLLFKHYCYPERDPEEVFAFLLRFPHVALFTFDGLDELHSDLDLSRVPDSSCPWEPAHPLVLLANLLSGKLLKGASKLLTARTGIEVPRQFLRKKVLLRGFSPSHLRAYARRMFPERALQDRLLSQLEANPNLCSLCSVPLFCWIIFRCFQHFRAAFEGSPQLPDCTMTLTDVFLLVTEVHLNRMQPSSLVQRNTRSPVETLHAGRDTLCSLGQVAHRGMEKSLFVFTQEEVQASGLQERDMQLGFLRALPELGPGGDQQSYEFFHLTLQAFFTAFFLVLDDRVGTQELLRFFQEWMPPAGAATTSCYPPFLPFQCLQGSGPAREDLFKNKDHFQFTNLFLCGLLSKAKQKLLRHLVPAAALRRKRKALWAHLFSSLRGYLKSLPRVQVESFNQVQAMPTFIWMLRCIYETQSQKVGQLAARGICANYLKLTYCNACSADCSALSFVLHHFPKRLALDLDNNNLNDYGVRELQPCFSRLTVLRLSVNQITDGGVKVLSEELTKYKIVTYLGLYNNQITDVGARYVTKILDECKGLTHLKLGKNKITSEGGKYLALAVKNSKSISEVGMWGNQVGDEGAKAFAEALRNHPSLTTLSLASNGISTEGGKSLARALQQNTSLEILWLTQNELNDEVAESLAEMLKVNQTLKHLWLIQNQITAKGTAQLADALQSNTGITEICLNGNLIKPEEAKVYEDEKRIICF
Put plainly: blockers of NOD1 pathway activity – revised, SAR follow-up (AID 2333). The data set is classed as functional.

For data set [6], the system named is HEK293. Put plainly: cells. Particulars: Homo sapiens.
Data set [7] concerns HEK293. Briefly: cells. The note with it: Homo sapiens. The class given is functional, cell-based.
A further data set has as its system Streptococcus. Briefly: GAS UMAA2166 growth inhibition – luminescence, BacTiterGlo, counter-screen for streptokinase expression inhibitor project, dose response (AID 1915).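 Note: potency for reduction of bacterial viability or growth.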 The class given is functional, organism-based.
The test system of data set [8] is Streptococcus sp. 'group A'. Put plainly: Streptococcus pyogenes SK(-)GAS viability under kanamycin – luminescence, BacTiterGlo, confirmation, counter-screen for streptokinase expression inhibitor project, dose response (AID 1900). The class given is functional, organism-based.
Data set [9] concerns HEK293. Put plainly: NOD2 signaling inhibitors in MDP-stimulated cells, cell-based, uHTS, luminescence (AID 2001). The note with it: Homo sapiens. The class given is functional.
For a further data set, the target named is T7, Streptokinase A (Streptococcus pyogenes serotype M1, UniProt P10520).
T7 sequence (P10520 whole entry): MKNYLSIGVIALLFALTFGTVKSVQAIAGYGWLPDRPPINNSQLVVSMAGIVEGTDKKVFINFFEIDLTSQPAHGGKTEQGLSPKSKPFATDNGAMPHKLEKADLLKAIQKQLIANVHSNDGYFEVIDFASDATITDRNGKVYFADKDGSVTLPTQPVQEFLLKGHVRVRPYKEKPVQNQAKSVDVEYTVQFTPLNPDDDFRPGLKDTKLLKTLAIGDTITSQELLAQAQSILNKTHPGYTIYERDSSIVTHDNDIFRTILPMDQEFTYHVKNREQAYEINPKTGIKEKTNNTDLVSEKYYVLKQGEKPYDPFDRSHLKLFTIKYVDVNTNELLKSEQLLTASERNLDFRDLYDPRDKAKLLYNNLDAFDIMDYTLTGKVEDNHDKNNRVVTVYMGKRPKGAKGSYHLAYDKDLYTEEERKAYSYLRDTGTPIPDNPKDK
Briefly: viability-normalized secreted streptokinase activity reduction – plasminogen activation absorbance, OD405, dose response (AID 1914).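 Note: secreted streptokinase activity via plasminogen activation per viability signal from cell pellet.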 The data set is classed as functional, Streptococcus pyogenes M1 GAS.

Data set [10] relates to HEK293. Put plainly: inhibition of NOD1-driven NF-kB reporter – cell-based, luminescence, uHTS, primary screen (AID 1578). The class given is functional. The note with it: Homo sapiens.
Data set [11] deals with HEK293. Put plainly: cells. The class given is functional, cell-based. Particulars: Homo sapiens. This is another data set of the same source.

Chain of Cytochrome P450 3A4 (P08684 whole entry): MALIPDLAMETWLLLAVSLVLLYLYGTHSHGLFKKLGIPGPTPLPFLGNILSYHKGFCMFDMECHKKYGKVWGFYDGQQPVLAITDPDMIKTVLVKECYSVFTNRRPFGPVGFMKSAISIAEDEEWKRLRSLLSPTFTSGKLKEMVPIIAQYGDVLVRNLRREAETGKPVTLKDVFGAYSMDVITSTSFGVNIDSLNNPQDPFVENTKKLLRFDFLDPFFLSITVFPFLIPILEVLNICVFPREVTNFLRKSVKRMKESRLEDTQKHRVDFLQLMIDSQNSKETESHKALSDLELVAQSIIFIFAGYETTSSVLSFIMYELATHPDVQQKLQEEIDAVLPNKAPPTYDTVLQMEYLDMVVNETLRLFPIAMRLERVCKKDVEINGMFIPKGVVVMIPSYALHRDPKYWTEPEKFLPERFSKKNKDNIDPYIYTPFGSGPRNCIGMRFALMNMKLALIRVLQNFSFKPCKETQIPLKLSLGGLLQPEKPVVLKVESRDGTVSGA
Chain of Tumor necrosis factor (P01375 whole entry, the tested form may be a part): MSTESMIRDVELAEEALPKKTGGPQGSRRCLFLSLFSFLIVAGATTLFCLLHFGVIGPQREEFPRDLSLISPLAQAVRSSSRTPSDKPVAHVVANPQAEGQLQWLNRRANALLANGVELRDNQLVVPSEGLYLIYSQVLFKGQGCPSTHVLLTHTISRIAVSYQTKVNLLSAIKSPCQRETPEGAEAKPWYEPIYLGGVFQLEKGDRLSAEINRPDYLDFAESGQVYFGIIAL

On to `NC(=O)CN1CCOCCOCCOCCOCCOCC1`, for which the AC50 entry at Cytochrome P450 3A4 is “inconclusive”.
For the compound `O=C(O)C1CCCCC1C(=O)Nc1ccc(F)c(F)c1` (configuration not stated), the half-maximal inhibitory concentration (IC50) (in general, the concentration at which inhibition is half-maximal) at Leucine aminopeptidase is 37.8 µM (active); in data set [1] it was > 79.4 µM (inactive); in [2] it was > 79.4 µM (inactive); in [3], > 79.4 µM (inactive).
On to `O=c1c2ccccc2sn1-c1ncc(Br)s1`, for which the IC50 on Phosphomannomutase 2 was > 100 µM (inactive); in data set [4], > 50 µM (inactive).
As to `COCC(=O)N1CCC2(CC1)CCN(c1ccc(-c3ccccc3)cc1)CC2`, the AC50 result on Cytochrome P450 3A4 is “inconclusive”.
As to `O=C(CNC(=O)c1ccc(Cl)cc1)NCC(F)(F)F`, the IC50 in [1], in data set [2] and in [3] was > 79.4 µM (inactive) throughout.
Turning to `COc1ccc(C(=O)Nc2sc3c(c2C(=O)O)CC(C)(C)OC3)cc1OC`, the IC50 at Tumor necrosis factor was > 20 µM (inactive); in data set [5], 15.1 µM (active); in the data set on HEK293 [6], > 20 µM (inactive).
On to `O=c1c2ccccc2sn1-c1nc2ccc(SC(F)F)cc2s1`, for which the IC50 is > 100 µM (inactive) at Phosphomannomutase 2 and > 50 µM (inactive) in [4].
Consider `Cc1ccccc1/C=C1\Sc2ccc(C(=O)N3CCN(c4ccccn4)CC3)cc2N(C)C1=O`, for which the IC50 was 7.21 µM (active) with HEK293 [7]; 6.22 µM (active) on Tumor necrosis factor; 4.28 µM (active) in data set [5]; 6.78 µM (active) with HEK293 [9]; 5.97 µM (active) with HEK293 [11]; 10.8 µM (active) with HEK293 [6]. The 50% effective concentration (EC50) (usually the midpoint of the concentration-response curve) was 16.6 µM (active) in the data set on Streptococcus, 4.49 µM (active) in data set [8], > 150 µM (not active) at Streptokinase A and 8.18 µM (active) with HEK293 [10].
For `CCSc1nnc(NC(=O)C2CCCCC2C(=O)O)s1` (configuration not stated), the IC50 in data set [1], in [2] and in data set [3] was > 79.4 µM (inactive) throughout.
As to `Clc1nss/c1=N\c1nccs1`, the IC50 is > 100 µM (inactive) at Phosphomannomutase 2; 32.9 µM (active) and 4.34 µM (active) in data set [4].
Regarding `CCOC(=O)N1CCN(c2nc(-c3cccs3)cc(C(F)(F)F)n2)CC1`, the AC50 result at Cytochrome P450 3A4 is “inconclusive”.
